Like-named read-outs stand apart in the source and are kept apart here. Starred links: 1 amine or outer side, 2 acyl side, 3 side chain; linkers in the order of their positions; H or OH if unused. Non-standard residues stand in square brackets, D forms with d. Groups on a side chain read outwards from the residue. *: point of attachment. C20 diacid = O=C(O)CCCCCCCCCCCCCCCCCCC(=O)*; C18 diacid = O=C(O)CCCCCCCCCCCCCCCCC(=O)*; γGlu = O=C(O)[C@H](CCC(=O)[*:2])N[*:1]; εLys = N[C@@H](CCCCN[*:1])C(=O)[*:2]; AEEA = NCCOCCOCC(=O)O; Aib = CC(C)(N)C(=O)O

What all share (format): cell-based
Conditions in all cases: CreLuc reporter gene assay
Background: In a reporter assay the amount or activity of a reporter protein is the signal.

One experiment concerns the target T1, hNPY2R (Homo sapiens, UniProt P49146).
T1 construct: expressed in transfected cells; host or cells: HEK-293 cells carrying a CRE-luciferase reporter gene
T1 sequence (P49146 1-381): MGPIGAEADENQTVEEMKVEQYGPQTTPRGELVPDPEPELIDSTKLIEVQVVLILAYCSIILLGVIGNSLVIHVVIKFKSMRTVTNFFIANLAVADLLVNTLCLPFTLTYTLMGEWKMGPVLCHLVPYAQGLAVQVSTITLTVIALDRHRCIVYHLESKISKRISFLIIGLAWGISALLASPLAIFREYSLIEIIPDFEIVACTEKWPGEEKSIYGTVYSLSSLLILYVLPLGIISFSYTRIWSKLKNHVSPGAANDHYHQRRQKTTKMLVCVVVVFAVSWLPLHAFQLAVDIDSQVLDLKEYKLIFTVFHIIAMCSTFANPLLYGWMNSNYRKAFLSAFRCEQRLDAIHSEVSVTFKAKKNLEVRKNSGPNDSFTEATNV
Kind of experiment: hNPY2R CreLuc reporter gene assay in 0.5% and 100% plasma. Put shortly:
(§1)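 HEK-293 cells co-expressing GLP-1 or NPY2 receptor and CHO cells expressing GIP receptor, each carrying a CRE-driven luciferase reporter, were stimulated with peptides for 4 hours at 37 °C. Luminescence was read after Bright-Glo addition. EC50 came from 8-point, four-decade curves fitted by variable-slope non-linear regression.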

The target in a further experiment is T2, hGLP1R (Homo sapiens, UniProt P43220).
T2 construct: expressed in transfected cells; host or cells: HEK-293 cells carrying a CRE-luciferase reporter gene
T2 sequence (P43220 24-463): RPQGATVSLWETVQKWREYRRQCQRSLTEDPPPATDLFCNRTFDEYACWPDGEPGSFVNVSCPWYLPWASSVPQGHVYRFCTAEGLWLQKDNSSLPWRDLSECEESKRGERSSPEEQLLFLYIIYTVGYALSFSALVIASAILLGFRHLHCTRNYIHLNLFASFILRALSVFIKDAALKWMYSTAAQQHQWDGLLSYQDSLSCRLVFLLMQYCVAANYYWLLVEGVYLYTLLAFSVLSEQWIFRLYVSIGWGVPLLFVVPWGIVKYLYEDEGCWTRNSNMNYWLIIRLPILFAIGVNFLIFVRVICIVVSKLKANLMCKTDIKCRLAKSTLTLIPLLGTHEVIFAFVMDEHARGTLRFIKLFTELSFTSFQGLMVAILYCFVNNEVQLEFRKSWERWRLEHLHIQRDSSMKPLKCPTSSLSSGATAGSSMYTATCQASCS
The experiment can be described thus: hGLP1R CreLuc reporter gene assay in 0.5% and 100% plasma. Put shortly:
as §1

For another experiment, the target named is T3, hGIPR (Homo sapiens, UniProt P48546).
T3 construct: expressed in transfected cells; host or cells: CHO cells carrying a CRE-luciferase reporter gene
T3 sequence (P48546 22-466): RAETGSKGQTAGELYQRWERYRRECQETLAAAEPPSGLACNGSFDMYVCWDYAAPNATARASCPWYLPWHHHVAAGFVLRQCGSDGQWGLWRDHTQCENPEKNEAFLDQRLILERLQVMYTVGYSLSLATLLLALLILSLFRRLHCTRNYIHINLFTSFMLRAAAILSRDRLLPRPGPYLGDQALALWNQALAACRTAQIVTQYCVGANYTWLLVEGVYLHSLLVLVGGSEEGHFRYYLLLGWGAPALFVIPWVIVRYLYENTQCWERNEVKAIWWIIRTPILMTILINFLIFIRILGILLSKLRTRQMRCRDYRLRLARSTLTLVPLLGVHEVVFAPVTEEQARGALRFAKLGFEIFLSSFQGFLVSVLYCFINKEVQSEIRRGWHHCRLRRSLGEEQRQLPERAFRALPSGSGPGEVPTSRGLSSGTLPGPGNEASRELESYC
The experiment can be described thus: hGIPR CreLuc reporter gene assay in 0.5% and 100% plasma. In outline: as §1

Setting [1] is: 0.5% human plasma, read-out: hNPY2R 0.5% hP.
Setting [2] is: 100% human plasma, read-out: hNPY2R 100% hP.
Setting [3] is: 0.5% human plasma, read-out: hGLP1R 0.5% hP.
The mark [4] stands for this setting: 100% human plasma, read-out: hGLP1R 100% hP.
Where [5] appears, read: 0.5% human plasma, read-out: hGIPR 0.5% hP.
The mark [6] stands for this setting: 100% human plasma, read-out: hGIPR 100% hP.

With “H-Y[Aib]EGTFTSDYSI[Aib]LEKQAE[Aib]AFVQWLIK([εLys-γGlu-γGlu-γGlu-γGlu-C18 diacid])GGPSEGASLRHYYNWLTRQRY-NH2 [Compound 174, Y-Aib-E-G-T-F-T-S-D-Y-S-I-Aib-L-E-K-Q-A-E-Aib-A-F-V-Q-W-L-I-K(1,3)-GGPSEGASLRHYYNWLTRQRY-NH2.C18DA-gGlu-gGlu-gGlu-gGlu-eLys(1,2)]”, the EC50 at hNPY2R (setting [1]) was 11500 pM; on hNPY2R (setting [2]), 39200 pM; at hGLP1R (setting [3]) it was 220 pM; at hGLP1R (setting [4]), 7710 pM; at hGIPR (setting [5]), 170 pM; at hGIPR (setting [6]), 1260 pM.
“H-Y[Aib]EGTFTSDYSI[Aib]LEKQAE[Aib]AFVQWLIK([εLys-γGlu-γGlu-γGlu-γGlu-C18 diacid])GGPSEPASLRHYYNWLTRQRY-NH2 [Compound 54, Y-Aib-E-G-T-F-T-S-D-Y-S-I-Aib-L-E-K-Q-A-E-Aib-A-F-V-Q-W-L-I-K(1,3)-GGPSEPASLRHYYNWLTRQRY-NH2.C18DA-gGlu-gGlu-gGlu-gGlu-eLys(1,2)]”: the EC50 at hNPY2R (setting [1]) stood at 14000 pM; at hGLP1R (setting [3]), 220 pM; at hGLP1R (setting [4]), 7710 pM; at hGIPR (setting [5]), 240 pM.
Turning to “H-Y[Aib]EGTFTSDYSI[Aib]LEKQAE[Aib]AFVQWLIK([εLys-γGlu-γGlu-γGlu-γGlu-γGlu-C18 diacid])GGPSEGASLRHYYNWLTRQRY-NH2 [Compound 138, Y-Aib-E-G-T-F-T-S-D-Y-S-I-Aib-L-E-K-Q-A-E-Aib-A-F-V-Q-W-L-I-K(1,3)-GGPSEGASLRHYYNWLTRQRY-NH2.C18DA-gGlu-gGlu-gGlu-gGlu-gGlu-eLys(1,2)]”, the EC50 was 18300 pM on hNPY2R (setting [1]), 190 pM on hGLP1R (setting [3]), 130 pM at hGIPR (setting [5]) and 810 pM at hGIPR (setting [6]).
Consider “H-Y[Aib]EGTFTSDYSI[Aib]LEKQAE[Aib]AFVQWLIK([εLys-γGlu-γGlu-γGlu-γGlu-γGlu-C20 diacid])GGPSEGASLRHYYNWLTRQRY-NH2 [Compound 200, Y-Aib-E-G-T-F-T-S-D-Y-S-I-Aib-L-E-K-Q-A-E-Aib-A-F-V-Q-W-L-I-K(1,3)-GGPSEGASLRHYYNWLTRQRY-NH2.C20DA-gGlu-gGlu-gGlu-gGlu-gGlu-eLys(1,2)]”, for which the EC50 came out at 12100 pM on hNPY2R (setting [1]), 480 pM at hGLP1R (setting [3]) and 370 pM at hGIPR (setting [5]).
With “H-Y[Aib]EGTFTSDYSI[Aib]LEKQAE[Aib]AFVQWLIK([εLys-γGlu-γGlu-γGlu-γGlu-γGlu-γGlu-C18 diacid])GGPSSGASLRHYYNWLTRQRY-NH2 [Compound 51, Y-Aib-E-G-T-F-T-S-D-Y-S-I-Aib-L-E-K-Q-A-E-Aib-A-F-V-Q-W-L-I-K(1,3)-GGPSSGASLRHYYNWLTRQRY-NH2.C18DA-gGlu-gGlu-gGlu-gGlu-gGlu-gGlu-eLys(1,2)]”, the EC50 on hNPY2R (setting [1]) was 13700 pM; at hNPY2R (setting [2]), 42200 pM; at hGLP1R (setting [3]), 150 pM; at hGIPR (setting [5]), 230 pM; on hGIPR (setting [6]), 1370 pM.
“H-Y[Aib]EGTFTSDYSI[Aib]LEKQAQ[Aib]AFIEWLIK([AEEA-AEEA-γGlu-γGlu-γGlu-γGlu-C20 diacid])GGPSEGASLRHYYNWLTRQRY-NH2 [Compound 231, Y-Aib-E-G-T-F-T-S-D-Y-S-I-Aib-L-E-K-Q-A-Q-Aib-A-F-I-E-W-L-I-K(1,3)-GGPSEGASLRHYYNWLTRQRY-NH2.C20DA-gGlu-gGlu-gGlu-gGlu-OEG-OEG(1,2)]”: the EC50 at hNPY2R (setting [1]) worked out at 19200 pM; on hGLP1R (setting [3]), 140 pM; on hGIPR (setting [5]), 330 pM; on hGIPR (setting [6]), 1430 pM.
As for “H-Y[Aib]EGTFTSDYSI[Aib]LEKQAQ[Aib]AFIEWLIK([γGlu-γGlu-γGlu-γGlu-C18 diacid])GGPSEGASLRHYYNWLTRQRY-NH2 [Compound 247, Y-Aib-E-G-T-F-T-S-D-Y-S-I-Aib-L-E-K-Q-A-Q-Aib-A-F-I-E-W-L-I-K(1,3)-GGPSEGASLRHYYNWLTRQRY-NH2.C18DA-gGlu-gGlu-gGlu-gGlu(1,2)]”, the EC50 was determined as 11900 pM at hNPY2R (setting [1]); 64700 pM on hNPY2R (setting [2]); 110 pM at hGLP1R (setting [3]); 260 pM at hGIPR (setting [5]); 1570 pM at hGIPR (setting [6]).
Consider “H-Y[Aib]EGTFTSDYSI[Aib]LEKQAQ[Aib]AFIEWLIK([γGlu-γGlu-γGlu-γGlu-C20 diacid])GGPSEGASLRHYYNWLTRQRY-NH2 [Compound 283, Y-Aib-E-G-T-F-T-S-D-Y-S-I-Aib-L-E-K-Q-A-Q-Aib-A-F-I-E-W-L-I-K(1,3)-GGPSEGASLRHYYNWLTRQRY-NH2.C20DA-gGlu-gGlu-gGlu-gGlu(1,2)]”, for which the EC50 stood at 14700 pM on hNPY2R (setting [1]); 130 pM at hGLP1R (setting [3]); 3860 pM on hGLP1R (setting [4]); 230 pM on hGIPR (setting [5]); 1860 pM at hGIPR (setting [6]).
For “H-Y[Aib]EGTFTSDYSI[Aib]LEKQAQ[Aib]AFVEWLIK([AEEA-AEEA-Glu-Glu-Glu-C18 diacid])GGPSEGASLRHYYNWLTRQRY-NH2 [Compound 298, Y-Aib-E-G-T-F-T-S-D-Y-S-I-Aib-L-E-K-Q-A-Q-Aib-A-F-V-E-W-L-I-K(1,3)-GGPSEGASLRHYYNWLTRQRY-NH2.C18DA-E-E-E-OEG-OEG(1,2)]”, the EC50 at hNPY2R (setting [1]) stood at 12100 pM; on hGLP1R (setting [3]), 110 pM; at hGIPR (setting [5]), 130 pM; on hGIPR (setting [6]) it was 1270 pM.
On the same counts, the results for “H-Y[Aib]EGTFTSDYSI[Aib]LEKQAQ[Aib]AFVEWLIK([AEEA-AEEA-γGlu-γGlu-γGlu-C18 diacid])GGPEEGASLRHYYNWLTRQRY-NH2 [Compound 248, Y-Aib-E-G-T-F-T-S-D-Y-S-I-Aib-L-E-K-Q-A-Q-Aib-A-F-V-E-W-L-I-K(1,3)-GGPEEGASLRHYYNWLTRQRY-NH2.C18DA-gGlu-gGlu-gGlu-OEG-OEG(1,2)]” are 18700 pM, 250 pM, 120 pM and 790 pM.
Take “H-Y[Aib]EGTFTSDYSI[Aib]LEKQAQ[Aib]AFVEWLIK([AEEA-AEEA-γGlu-γGlu-γGlu-C18 diacid])GGPESGASLRHYYNWLTRQRY-NH2 [Compound 166, Y-Aib-E-G-T-F-T-S-D-Y-S-I-Aib-L-E-K-Q-A-Q-Aib-A-F-V-E-W-L-I-K(1,3)-GGPESGASLRHYYNWLTRQRY-NH2.C18DA-gGlu-gGlu-gGlu-OEG-OEG(1,2)]”: the EC50 is 12500 pM at hNPY2R (setting [1]); 70 pM at hGLP1R (setting [3]); 4240 pM on hGLP1R (setting [4]); 80 pM at hGIPR (setting [5]); 640 pM at hGIPR (setting [6]).
On to “H-Y[Aib]EGTFTSDYSI[Aib]LEKQAQ[Aib]AFVEWLIK([AEEA-AEEA-γGlu-γGlu-γGlu-γGlu-C18 diacid])GGPEEPASLRHYYNWLTRQRY-NH2 [Compound 161, Y-Aib-E-G-T-F-T-S-D-Y-S-I-Aib-L-E-K-Q-A-Q-Aib-A-F-V-E-W-L-I-K(1,3)-GGPEEPASLRHYYNWLTRQRY-NH2.C18DA-gGlu-gGlu-gGlu-gGlu-OEG-OEG(1,2)]”, for which the EC50 at hNPY2R (setting [1]) was 11500 pM; on hNPY2R (setting [2]), 41700 pM; at hGLP1R (setting [3]), 210 pM; at hGIPR (setting [5]), 140 pM; on hGIPR (setting [6]), 1230 pM.
Regarding “H-Y[Aib]EGTFTSDYSI[Aib]LEKQAQ[Aib]AFVEWLIK([AEEA-AEEA-γGlu-γGlu-γGlu-γGlu-C18 diacid])GGPESGASLRHYYNWLTRQRY-NH2 [Compound 163, Y-Aib-E-G-T-F-T-S-D-Y-S-I-Aib-L-E-K-Q-A-Q-Aib-A-F-V-E-W-L-I-K(1,3)-GGPESGASLRHYYNWLTRQRY-NH2.C18DA-gGlu-gGlu-gGlu-gGlu-OEG-OEG(1,2)]”, the EC50 at hNPY2R (setting [1]) worked out at 21300 pM; on hNPY2R (setting [2]), 55200 pM; at hGLP1R (setting [3]), 100 pM; on hGIPR (setting [5]), 260 pM; on hGIPR (setting [6]) it was 870 pM.
For the substance “H-Y[Aib]EGTFTSDYSI[Aib]LEKQAQ[Aib]AFVEWLIK([AEEA-AEEA-γGlu-γGlu-γGlu-γGlu-C18 diacid])GGPSEPASLRHYYNWLTRQRY-NH2 [Compound 256, Y-Aib-E-G-T-F-T-S-D-Y-S-I-Aib-L-E-K-Q-A-Q-Aib-A-F-V-E-W-L-I-K(1,3)-GGPSEPASLRHYYNWLTRQRY-NH2.C18DA-gGlu-gGlu-gGlu-gGlu-OEG-OEG(1,2)]”, the EC50 on hNPY2R (setting [1]) came to 10900 pM; on hGLP1R (setting [3]), 180 pM; on hGIPR (setting [5]), 230 pM; on hGIPR (setting [6]) it was 1560 pM.
